Reference: US11304944B2, “MetAP2 inhibitors and methods of treating obesity” (SynDevRx, Inc., priority 2013, dated 2022)
Values belong to the molecule of their own block, whether it stands above or below them.

Assays:
[1] = system: DIO Levin rats; test: Oral Glucose Tolerance Test (OGTT) Day 48 and HOMA-ir in DIO Levin rats; format: in vivo; details: for Blood Glucose, Time 15 / Blood Glucose, Time 30 / Blood Glucose, Time 60 / Blood Glucose, Time 90 / Blood Glucose, Time 120: OGTT; for BW: at OGTT;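 as to Blood Glucose pre-OGTT: blood glucose in mg/dL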;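 as to Blood Glucose, Time 120: blood glucose in mg/dL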;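 as to Blood Glucose, Time 15: blood glucose in mg/dL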;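 as to Blood Glucose, Time 30: blood glucose in mg/dL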;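 as to Blood Glucose, Time 60: blood glucose in mg/dL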;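 as to Blood Glucose, Time 90: blood glucose in mg/dL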
Experimental: (§1) Animals were weighed every other day. Food consumption was measured weekly. On an approximately weekly basis throughout the study, blood samples were taken for assessment of serum chemistries including glucose and insulin. On Day 48 all rats underwent a 4 hour fasted Oral Glucose Tolerance Test (OGTT). Animals were dosed orally (per os, PO) at 8 mL/kg 25% glucose (2 g/kg). On day 68, gross pathology was performed to determine body composition.

[2] = every fourth day schedule; due to confusion and insomnia; cited from earlier work
[3] = system: DIO Levin rats; test: In vivo testing DIO Levin rats: weight changes, food consumption, insulin, leptin levels; details: for Final BW: after 68 days, 60% fat diet
Experimental: CKD-732 as referred to herein is the hemitartrate salt of the following structure:
Test articles were administered subcutaneously on an every 4 day (q4d) schedule in a diet-induced obesity (DIO) Levin-DS rat model. […] A dietary intervention (Standard Chow, Labdiet 5001; 3.4 kcal/g) was included to compare to the drug interventions. Upon arrival at three weeks of age, the male rats received ad libitum pellets of Harlan Diet TD.06414, 60% of calories from fat, 21% of calories from carbohydrate; 5.1 kcal/g. Prior to dosing the rats were randomized into groups of three animals with an average body weight of 595 gm. […] Compound 1 in the form of the hemitartrate and CKD-732 in the form of the hemitartrate were dissolved in ethanol prior to dilution with vehicle. All doses were administered at a volume of 5.0 ml/kg. […] On day 1, first dose, the rats were 14 weeks of age. Also on day 1, Group 2 was switched from the high fat diet to a standard chow diet; the remaining groups were maintained on a high fat diet for the duration of the study.
as §1

[4] = system: DIO C57Bl/6 mice; test: In vivo testing DIO mice schedule-dose response: weight, food intake, ipGTT, HOMA-ir data
Experimental: Animals were dosed according to the schedule in Table 17 below.
Compound dosing occurred between 9 and 10 am on the day of dosing. Groups 6 and 7 received a total of 17 doses. The q4d groups (1, 2, 3, 4, 8, 9) received a total of 9 doses. The q8d group (5) received a total of 5 drug doses. Body weight and food intake were measured every other day. Blood glucose was measured on Day −7, Day 0, Day 7, Day 14, Day 21 and Day 28 at 9:00 am in fed state (BG measured before dose on dosing days). BG was measured by glucometer. An intraperitoneal glucose tolerance test (ipGTT, 6 h fasting) was performed.
The study was terminated on day 34. Liver and epididymal white adipose tissues (eWAT) were harvested, weighed and stored at −80° C. Sera was collected to determine: AST, ALT, ALP, CK, BUN, creatinine, calcium, potassium, sodium, chloride, total protein, albumin, total bilirubin, glucose, triglyceride and cholesterol. Insulin samples were measured using a commercial kit.

[5] = Plasma pharmacokinetics after single IV bolus in Sprague Dawley rats (LC/MS/MS, analyte Compound 1); format: in vivo; details: male, rat, Compound 1 30 mg/kg single IV bolus
Experimental: Blood samples were collected via saphenous vein puncture at 0, 0.25, 0.5, 1, 2, 4, 8, 24 and 48 hours.

SMILES: COC1C(OC(=O)/C=C/c2ccc(OCCN(C)C)cc2)CC[C@]2(CO2)C1[C@@]1(C)O[C@@H]1CC=C(C)C (stereo partly shown) [CKD-732, reference compound]
Blood Glucose pre-OGTT ([1]; 1.15 mg/kg q4d sc): 123 mg/dL | HOMA-ir (Insulin Sensitivity) 15 min ([1]; 1.15 mg/kg q4d sc): 49.0 | HOMA-ir (Insulin Sensitivity) 30 min ([1]; 1.15 mg/kg q4d sc): 35.9 | HOMA-ir (Insulin Sensitivity) Pre-dose ([1]; 1.15 mg/kg q4d sc): 13.6 | Blood Glucose, Time 15 ([1]; 1.15 mg/kg q4d sc): 174 mg/dL | Blood Glucose, Time 30 ([1]; 1.15 mg/kg q4d sc): 171 mg/dL | Blood Glucose, Time 60 ([1]; 1.15 mg/kg q4d sc): 158 mg/dL | Blood Glucose, Time 90 ([1]; 1.15 mg/kg q4d sc): 153 mg/dL | Blood Glucose, Time 120 ([1]; 1.15 mg/kg q4d sc): 144 mg/dL | BW ([1]; 1.15 mg/kg q4d sc): 686 g | MTD [2]: 15 mg/m2/day | lower body weight than vehicle ([3]; 1.15 mg/kg Q4D): 3.2% | Avg. Insulin Day 7 ([3]; 1.15 mg/kg q4d sc): 2.08 ng/mL | Avg. Insulin Day 15 ([3]; 1.15 mg/kg q4d sc): 1.91 ng/mL | Avg. Insulin Day 23 ([3]; 1.15 mg/kg q4d sc): 1.60 ng/mL | Avg. Insulin Day 48 ([3]; 1.15 mg/kg q4d sc): 1.56 ng/mL | Avg. Insulin Pre-dosing ([3]; 1.15 mg/kg q4d sc): 2.58 ng/mL | Group Average Food Consumption Day 1-8 ([3]; 1.15 mg/kg q4d sc): 131.8 g | Group Average Food Consumption Day 9-15 ([3]; 1.15 mg/kg q4d sc): 110.5 g | Group Average Food Consumption Day 16-23 ([3]; 1.15 mg/kg q4d sc): 108.7 g | Group Average Food Consumption Day 24-30 ([3]; 1.15 mg/kg q4d sc): 133.9 g | Group Average Food Consumption Day 31-36 ([3]; 1.15 mg/kg q4d sc): 153.9 g | Group Average Food Consumption Day 37-43 ([3]; 1.15 mg/kg q4d sc): 148.7 g | Group Average Food Consumption Day 44-50 ([3]; 1.15 mg/kg q4d sc): 112.3 g | Group Average Food Consumption Day 51-57 ([3]; 1.15 mg/kg q4d sc): 135.0 g | Group Average Food Consumption Day 58-63 ([3]; 1.15 mg/kg q4d sc): 125.5 g | Group Average Food Consumption Day 63-68 ([3]; 1.15 mg/kg q4d sc): 61.9 g | Leptin Levels Day 29 ([3]; 1.15 mg/kg q4d sc): 4.30 | Leptin Levels Pre-dose ([3]; 1.15 mg/kg q4d sc): 4.43 | Leptin Levels, Day 29, % Change from Baseline ([3]; 1.15 mg/kg q4d sc): −3.0% | Final BW ([3]; 1.15 mg/kg q4d sc): 714.0 g | Glucose, ipGTT 0 min ([4]; 1 mg/kg Q2D): 161.3 mg/dL | Glucose, ipGTT 15 min ([4]; 1 mg/kg Q2D): 469.2 mg/dL | Insulin, ipGTT 0 min ([4]; 1 mg/kg Q2D): 54.8 uU/ml | Insulin, ipGTT 15 min ([4]; 1 mg/kg Q2D): 89.3 uU/ml | Glucose, ipGTT 0 min ([4]; 2 mg/kg q4d): 182.6 mg/dL | Glucose, ipGTT 15 min ([4]; 2 mg/kg q4d): 498.6 mg/dL | Insulin, ipGTT 0 min ([4]; 2 mg/kg q4d): 99.8 uU/ml | Insulin, ipGTT 15 min ([4]; 2 mg/kg q4d): 118.3 uU/ml | response (weight loss) by schedule ([4]; Q2D (QOD) schedule versus Q4D, FIG. 20): better response than the same average daily dose administered on a Q4D schedule

Cmax [5]: ~15 µM | half-life [5]: 10 to 15 min
SMILES: COC1C(OC(=O)N[C@H]2CC[C@H](N)CC2)CC[C@]2(CO2)C1[C@@]1(C)O[C@@H]1CC=C(C)C (stereo partly drawn) [Compound 1, Fumagill-6-yl [trans-(4-aminocyclohexyl)]carbamate]
Blood Glucose pre-OGTT ([1]; 1 mg/kg q4d sc): 124 mg/dL | HOMA-ir (Insulin Sensitivity) 15 min ([1]; 1 mg/kg q4d sc): 42.7 | HOMA-ir (Insulin Sensitivity) 30 min ([1]; 1 mg/kg q4d sc): 21.1 | HOMA-ir (Insulin Sensitivity) Pre-dose ([1]; 1 mg/kg q4d sc): 15.4 | Blood Glucose, Time 15 ([1]; 1 mg/kg q4d sc): 156 mg/dL | Blood Glucose, Time 30 ([1]; 1 mg/kg q4d sc): 142 mg/dL | Blood Glucose, Time 60 ([1]; 1 mg/kg q4d sc): 152 mg/dL | Blood Glucose, Time 90 ([1]; 1 mg/kg q4d sc): 151 mg/dL | Blood Glucose, Time 120 ([1]; 1 mg/kg q4d sc): 142 mg/dL | BW ([1]; 1 mg/kg q4d sc): 686 g | Blood Glucose pre-OGTT ([1]; 3 mg/kg q4d sc): 123 mg/dL | HOMA-ir (Insulin Sensitivity) 15 min ([1]; 3 mg/kg q4d sc): 29.2 | HOMA-ir (Insulin Sensitivity) 30 min ([1]; 3 mg/kg q4d sc): 9.5 | HOMA-ir (Insulin Sensitivity) Pre-dose ([1]; 3 mg/kg q4d sc): 12.2 | Blood Glucose, Time 15 ([1]; 3 mg/kg q4d sc): 175 mg/dL | Blood Glucose, Time 30 ([1]; 3 mg/kg q4d sc): 171 mg/dL | Blood Glucose, Time 60 ([1]; 3 mg/kg q4d sc): 149 mg/dL | Blood Glucose, Time 90 ([1]; 3 mg/kg q4d sc): 147 mg/dL | Blood Glucose, Time 120 ([1]; 3 mg/kg q4d sc): 129 mg/dL | BW ([1]; 3 mg/kg q4d sc): 668 g | lower body weight than vehicle ([3]; 1 mg/kg Q4D): 3.9% | Avg. Insulin Day 7 ([3]; 1 mg/kg q4d sc): 1.83 ng/mL | Avg. Insulin Day 15 ([3]; 1 mg/kg q4d sc): 1.39 ng/mL | Avg. Insulin Day 23 ([3]; 1 mg/kg q4d sc): 1.20 ng/mL | Avg. Insulin Day 48 ([3]; 1 mg/kg q4d sc): 1.75 ng/mL | Avg. Insulin Pre-dosing ([3]; 1 mg/kg q4d sc): 1.92 ng/mL | Group Average Food Consumption Day 1-8 ([3]; 1 mg/kg q4d sc): 128.6 g | Group Average Food Consumption Day 9-15 ([3]; 1 mg/kg q4d sc): 109.3 g | Group Average Food Consumption Day 16-23 ([3]; 1 mg/kg q4d sc): 121.1 g | Group Average Food Consumption Day 24-30 ([3]; 1 mg/kg q4d sc): 145.9 g | Group Average Food Consumption Day 31-36 ([3]; 1 mg/kg q4d sc): 144.6 g | Group Average Food Consumption Day 37-43 ([3]; 1 mg/kg q4d sc): 141.7 g | Group Average Food Consumption Day 44-50 ([3]; 1 mg/kg q4d sc): 122.4 g | Group Average Food Consumption Day 51-57 ([3]; 1 mg/kg q4d sc): 147.7 g | Group Average Food Consumption Day 58-63 ([3]; 1 mg/kg q4d sc): 140.7 g | Group Average Food Consumption Day 63-68 ([3]; 1 mg/kg q4d sc): 55.1 g | Leptin Levels Day 29 ([3]; 1 mg/kg q4d sc): 2.47 | Leptin Levels Pre-dose ([3]; 1 mg/kg q4d sc): 2.50 | Leptin Levels, Day 29, % Change from Baseline ([3]; 1 mg/kg q4d sc): −1.3% | Final BW ([3]; 1.0 mg/kg q4d sc): 717.3 g | lower body weight than the vehicle control ([3]; 3 mg/kg Q4D, end of the study): 8.9% | Avg. Insulin Day 7 ([3]; 3 mg/kg q4d sc): 1.35 ng/mL | Avg. Insulin Day 15 ([3]; 3 mg/kg q4d sc): 1.68 ng/mL | Avg. Insulin Day 23 ([3]; 3 mg/kg q4d sc): 1.27 ng/mL | Avg. Insulin Day 48 ([3]; 3 mg/kg q4d sc): 1.40 ng/mL | Avg. Insulin Pre-dosing ([3]; 3 mg/kg q4d sc): 2.10 ng/mL | Group Average Food Consumption Day 1-8 ([3]; 3 mg/kg q4d sc): 123.6 g | Group Average Food Consumption Day 9-15 ([3]; 3 mg/kg q4d sc): 98.9 g | Group Average Food Consumption Day 16-23 ([3]; 3 mg/kg q4d sc): 110.1 g | Group Average Food Consumption Day 24-30 ([3]; 3 mg/kg q4d sc): 149.3 g | Group Average Food Consumption Day 31-36 ([3]; 3 mg/kg q4d sc): 138.8 g | Group Average Food Consumption Day 37-43 ([3]; 3 mg/kg q4d sc): 130.9 g | Group Average Food Consumption Day 44-50 ([3]; 3 mg/kg q4d sc): 94.7 g | Group Average Food Consumption Day 51-57 ([3]; 3 mg/kg q4d sc): 116.2 g | Group Average Food Consumption Day 58-63 ([3]; 3 mg/kg q4d sc): 124.9 g | Group Average Food Consumption Day 63-68 ([3]; 3 mg/kg q4d sc): 49.8 g | Leptin Levels Day 29 ([3]; 3 mg/kg q4d sc): 3.60 | Leptin Levels Pre-dose ([3]; 3 mg/kg q4d sc): 3.23 | Leptin Levels, Day 29, % Change from Baseline ([3]; 3 mg/kg q4d sc): 11.33% | Final BW ([3]; 3.0 mg/kg q4d sc): 684.0 g | reduction in leptin levels ([3]; serum leptin day 29): did not result in significant reductions in leptin levels
